Earlier results in patent US20220364053A1, “HUMAN CELLULAR MODEL FOR INVESTIGATING CORTICO-STRIATAL-MIDBRAIN NEURAL PATHWAYS” (The Board of Trustees of the Leland Stanford Junior …, priority 2019, published 2022).
One block for each compound: values may come before it.

Legend:
TNKS2 = target: T1, TNKS2 (Homo sapiens, UniProt Q9H2K2)
T1 sequence (Q9H2K2 1-1166): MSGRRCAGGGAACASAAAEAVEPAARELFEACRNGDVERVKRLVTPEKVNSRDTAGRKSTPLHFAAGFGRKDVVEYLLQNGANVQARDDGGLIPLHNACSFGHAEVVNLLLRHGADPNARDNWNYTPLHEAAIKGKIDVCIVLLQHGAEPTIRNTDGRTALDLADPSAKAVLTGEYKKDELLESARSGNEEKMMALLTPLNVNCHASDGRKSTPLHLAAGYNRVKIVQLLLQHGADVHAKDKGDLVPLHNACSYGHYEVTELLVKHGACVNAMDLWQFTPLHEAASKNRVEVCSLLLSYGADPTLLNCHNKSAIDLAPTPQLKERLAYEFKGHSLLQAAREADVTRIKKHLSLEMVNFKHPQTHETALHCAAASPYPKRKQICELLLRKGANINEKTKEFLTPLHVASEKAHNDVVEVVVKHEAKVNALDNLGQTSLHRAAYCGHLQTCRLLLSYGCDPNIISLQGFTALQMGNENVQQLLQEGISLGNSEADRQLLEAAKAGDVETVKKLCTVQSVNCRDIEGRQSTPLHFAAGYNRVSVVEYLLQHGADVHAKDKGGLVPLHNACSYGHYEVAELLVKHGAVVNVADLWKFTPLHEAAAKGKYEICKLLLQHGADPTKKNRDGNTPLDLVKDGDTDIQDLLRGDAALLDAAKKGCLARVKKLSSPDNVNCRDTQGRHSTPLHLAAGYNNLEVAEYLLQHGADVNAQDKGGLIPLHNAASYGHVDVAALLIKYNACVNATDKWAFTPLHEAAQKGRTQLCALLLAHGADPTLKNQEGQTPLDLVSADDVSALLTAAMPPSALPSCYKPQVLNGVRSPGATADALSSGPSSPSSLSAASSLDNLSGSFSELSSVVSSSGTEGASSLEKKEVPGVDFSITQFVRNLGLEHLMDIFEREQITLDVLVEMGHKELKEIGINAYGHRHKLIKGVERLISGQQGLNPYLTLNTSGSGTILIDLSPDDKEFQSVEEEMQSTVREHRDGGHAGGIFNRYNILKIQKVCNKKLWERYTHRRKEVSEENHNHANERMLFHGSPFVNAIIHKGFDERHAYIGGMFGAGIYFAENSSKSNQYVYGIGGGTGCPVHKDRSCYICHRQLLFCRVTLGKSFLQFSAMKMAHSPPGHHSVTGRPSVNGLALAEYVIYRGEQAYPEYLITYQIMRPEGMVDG

Smo heptahelical domain = Smo heptahelical domain (Homo sapiens, UniProt Q99835)
[1] = target: Wnt3A-mediated activation of a multimerized TCF-binding site driving luciferase; settings: HEK293 cells
Wnt signaling = settings: TM3 cells; read-out: IC50, inhibits Wnt signaling
[2] = target: element-binding protein (CBP) (Homo sapiens, UniProt Q92793); settings: read-out: IC50, binds to element-binding protein (CBP)
[3] = system: Wnt processing and secretion; settings: cell-free assay; read-out: IC50, inhibitor of Wnt processing and secretion
[4] = system: Wnt-stimulated cellular responses
Porcn = target: T2, Porcn (Homo sapiens, UniProt Q9H237); settings: read-out: EC50, Porcn inhibitor
T2 sequence (Q9H237 1-461): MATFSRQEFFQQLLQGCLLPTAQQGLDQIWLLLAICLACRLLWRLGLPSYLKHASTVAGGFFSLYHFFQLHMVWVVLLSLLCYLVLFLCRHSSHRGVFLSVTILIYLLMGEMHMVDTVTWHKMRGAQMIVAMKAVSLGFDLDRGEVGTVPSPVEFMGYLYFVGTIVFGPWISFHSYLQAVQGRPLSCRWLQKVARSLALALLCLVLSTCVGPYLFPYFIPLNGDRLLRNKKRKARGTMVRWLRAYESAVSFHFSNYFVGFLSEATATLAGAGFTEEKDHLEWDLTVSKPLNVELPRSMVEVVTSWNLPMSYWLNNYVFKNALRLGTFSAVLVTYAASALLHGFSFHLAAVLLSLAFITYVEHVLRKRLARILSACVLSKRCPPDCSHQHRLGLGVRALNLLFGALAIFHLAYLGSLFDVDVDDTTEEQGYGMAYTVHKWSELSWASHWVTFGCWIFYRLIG

element-binding protein (CBP), sequence (Q92793 whole entry): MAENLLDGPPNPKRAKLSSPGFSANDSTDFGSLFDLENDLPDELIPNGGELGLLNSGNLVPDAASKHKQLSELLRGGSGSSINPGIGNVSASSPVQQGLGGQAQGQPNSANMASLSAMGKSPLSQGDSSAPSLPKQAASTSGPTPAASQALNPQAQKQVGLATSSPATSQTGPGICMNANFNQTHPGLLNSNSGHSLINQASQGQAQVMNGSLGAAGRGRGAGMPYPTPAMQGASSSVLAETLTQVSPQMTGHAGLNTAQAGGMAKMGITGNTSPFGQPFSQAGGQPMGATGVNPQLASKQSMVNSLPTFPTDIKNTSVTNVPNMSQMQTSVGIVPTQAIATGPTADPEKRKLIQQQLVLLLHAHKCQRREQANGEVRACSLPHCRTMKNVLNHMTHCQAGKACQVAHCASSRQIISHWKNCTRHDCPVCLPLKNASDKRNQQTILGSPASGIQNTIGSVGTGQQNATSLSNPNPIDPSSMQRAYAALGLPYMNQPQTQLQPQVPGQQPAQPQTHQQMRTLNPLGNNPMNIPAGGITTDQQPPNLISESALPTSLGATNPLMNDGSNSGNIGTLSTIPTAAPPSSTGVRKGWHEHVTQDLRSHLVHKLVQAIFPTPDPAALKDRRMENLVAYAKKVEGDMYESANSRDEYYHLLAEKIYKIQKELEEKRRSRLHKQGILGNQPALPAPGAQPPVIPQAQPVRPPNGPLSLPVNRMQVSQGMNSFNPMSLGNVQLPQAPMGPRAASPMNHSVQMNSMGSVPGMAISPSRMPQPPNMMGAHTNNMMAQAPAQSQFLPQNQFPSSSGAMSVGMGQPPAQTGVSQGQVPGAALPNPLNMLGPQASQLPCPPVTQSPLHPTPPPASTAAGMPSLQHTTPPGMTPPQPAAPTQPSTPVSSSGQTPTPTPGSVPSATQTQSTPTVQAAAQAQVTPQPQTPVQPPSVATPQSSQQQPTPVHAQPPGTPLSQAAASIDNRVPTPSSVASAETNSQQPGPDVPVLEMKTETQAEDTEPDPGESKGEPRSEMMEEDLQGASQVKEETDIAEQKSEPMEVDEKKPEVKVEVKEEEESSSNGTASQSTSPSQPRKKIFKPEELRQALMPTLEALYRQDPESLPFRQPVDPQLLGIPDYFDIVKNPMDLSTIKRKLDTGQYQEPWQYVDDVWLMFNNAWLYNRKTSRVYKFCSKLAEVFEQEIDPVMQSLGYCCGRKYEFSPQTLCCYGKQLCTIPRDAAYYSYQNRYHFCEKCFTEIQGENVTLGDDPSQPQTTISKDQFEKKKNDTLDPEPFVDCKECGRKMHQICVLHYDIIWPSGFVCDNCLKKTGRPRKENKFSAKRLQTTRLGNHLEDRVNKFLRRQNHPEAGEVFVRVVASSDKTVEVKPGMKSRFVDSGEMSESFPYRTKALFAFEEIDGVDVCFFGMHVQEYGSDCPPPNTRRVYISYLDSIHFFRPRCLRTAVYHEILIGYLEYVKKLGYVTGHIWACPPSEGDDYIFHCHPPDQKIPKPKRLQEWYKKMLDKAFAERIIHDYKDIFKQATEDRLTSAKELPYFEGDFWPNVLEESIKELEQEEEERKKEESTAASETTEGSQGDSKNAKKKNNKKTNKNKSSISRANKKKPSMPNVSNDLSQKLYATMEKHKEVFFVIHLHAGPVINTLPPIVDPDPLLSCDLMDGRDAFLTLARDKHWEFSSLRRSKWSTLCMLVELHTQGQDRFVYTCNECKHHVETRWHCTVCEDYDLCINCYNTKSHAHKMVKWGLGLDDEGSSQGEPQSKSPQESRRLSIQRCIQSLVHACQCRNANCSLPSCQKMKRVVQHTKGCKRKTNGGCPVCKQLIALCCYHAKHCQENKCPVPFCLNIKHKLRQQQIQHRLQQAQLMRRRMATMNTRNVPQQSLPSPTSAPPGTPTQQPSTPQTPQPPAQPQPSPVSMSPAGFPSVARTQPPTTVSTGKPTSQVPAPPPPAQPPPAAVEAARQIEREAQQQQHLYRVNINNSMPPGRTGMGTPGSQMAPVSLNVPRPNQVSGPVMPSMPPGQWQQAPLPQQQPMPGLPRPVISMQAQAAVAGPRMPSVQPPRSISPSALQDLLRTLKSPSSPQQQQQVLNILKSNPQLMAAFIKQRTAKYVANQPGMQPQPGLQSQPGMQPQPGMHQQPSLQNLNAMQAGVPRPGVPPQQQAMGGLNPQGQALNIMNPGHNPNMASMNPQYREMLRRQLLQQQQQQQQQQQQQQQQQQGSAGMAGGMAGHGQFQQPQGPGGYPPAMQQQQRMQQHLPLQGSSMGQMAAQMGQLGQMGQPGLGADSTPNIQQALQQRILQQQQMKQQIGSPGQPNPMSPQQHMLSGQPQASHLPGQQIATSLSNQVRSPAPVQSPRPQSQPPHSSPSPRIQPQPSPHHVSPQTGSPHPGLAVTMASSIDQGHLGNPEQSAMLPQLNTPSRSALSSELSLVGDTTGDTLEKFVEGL
Smo heptahelical domain, sequence (Q99835 28-787): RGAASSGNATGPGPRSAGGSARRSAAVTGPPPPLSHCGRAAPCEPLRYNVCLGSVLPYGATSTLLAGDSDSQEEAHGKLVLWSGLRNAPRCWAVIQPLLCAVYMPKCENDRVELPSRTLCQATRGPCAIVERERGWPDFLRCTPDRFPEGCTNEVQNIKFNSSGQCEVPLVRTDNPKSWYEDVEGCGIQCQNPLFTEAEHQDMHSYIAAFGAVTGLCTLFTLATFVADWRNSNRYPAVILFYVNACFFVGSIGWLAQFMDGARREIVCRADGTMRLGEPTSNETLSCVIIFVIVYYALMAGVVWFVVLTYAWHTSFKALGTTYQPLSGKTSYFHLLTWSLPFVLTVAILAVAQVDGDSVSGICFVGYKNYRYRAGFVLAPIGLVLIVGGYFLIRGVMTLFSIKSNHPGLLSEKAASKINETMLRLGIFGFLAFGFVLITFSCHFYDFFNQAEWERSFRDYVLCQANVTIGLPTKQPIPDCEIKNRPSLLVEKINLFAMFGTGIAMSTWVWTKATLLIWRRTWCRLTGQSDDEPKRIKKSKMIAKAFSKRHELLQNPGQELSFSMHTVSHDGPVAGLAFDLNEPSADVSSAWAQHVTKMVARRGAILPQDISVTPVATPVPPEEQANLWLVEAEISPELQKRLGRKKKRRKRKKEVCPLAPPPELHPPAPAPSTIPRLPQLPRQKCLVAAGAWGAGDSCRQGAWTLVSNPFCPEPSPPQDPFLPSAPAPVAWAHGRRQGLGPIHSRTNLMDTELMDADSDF

IC50 (TNKS2): 15 nM
SMILES: COc1ccc(-n2c(SCCCN3C(=O)c4cccc5cccc(c45)C3=O)nnc2-c2ccncc2)cc1 [WIKI4]

Kd (Smo heptahelical domain): 59 nM
SMILES: CNC1CCC(N(Cc2cccc(-c3ccncc3)c2)C(=O)c2sc3ccccc3c2Cl)CC1 (centres unmarked) [SAG]

IC50 [1]: 74000 nM
SMILES: Cc1cc(-c2ccc(CC(=O)Nc3ccc(-c4cccnc4)cc3)cc2)ccn1 [Wnt-C59]

The remaining lines, values behind:

SMILES: Cc1cc(-c2ncc(CC(=O)Nc3ccc(-c4cnccn4)cn3)cc2C)ccn1 [LGK-974]
IC50 (Wnt signaling): 0.4 nM

SMILES: O=C1[C@H](Cc2ccc(O)cc2)N2C(=O)CCN(C(=O)NCc3ccccc3)[C@H]2CN1Cc1cccc2ccccc12 [ICG-001]
IC50 [2]: 3000 nM

SMILES: Cc1ccc2nc(NC(=O)CSc3nc4c(c(=O)n3-c3ccccc3)SCC4)sc2c1 [IWP-2]
IC50 [3]: 27 nM
effect against Wnt-stimulated cellular responses [4]: no effect

SMILES: O=C(CSc1nc2c(c(=O)n1-c1ccccc1)SCC2)Nc1ccc(-c2ccccc2)cn1 [IWP-L6]
EC50 (Porcn): 0.5 nM
